This is an account of results in patent US20150087722A1, “TREATMENT FOR BREAST TUMOR CELL METASTASIS” (China Medical University, priority 2012, published 2015).

What is called pIC50 is −log10 of the IC50, conventionally taken in molar units.

The subject of assay [1] is breast tumor cells MDA-MB-231. As to the kind of experiment: MTT cell viability assay. To be noted: for pIC50: Homo sapiens; for cell viability: FIG. 13. Type of assay: cell-based, human. How it is done: The breast tumor cells (MDA-MB-231, MDA-MB-435, MDA-MB-453, MDA-MB-468 and MCF-7) were commercially obtained from the bioresource collection and research center (BCRC), and were cultured in a 10% FBS-DMEM culture medium (i.e., a DMEM culture medium including 10% fetal bovine serum (FBS)). The human breast cell MCF-10A was cultured in a 5% FBS-DMEM culture medium (including F12, insulin, hydrocortisol and epidermal growth factor). An environment of 5% CO2 was kept in the incubator at a constant temperature of 37° C. When a certain number of cells were generated in culture, the culture medium was removed after being centrifuged for 10 min at a rate of 900 rpm. The culture medium was replaced in 24 h before the experiment, and the number of cells was counted by a hemocytometer.
The cell viability was determined by a method of […] (MTT assay). The test method for assaying cell viability refers to steps provided by Parada-Turska et al.
The breast tumor cells MDA-MB-231 were inoculated in a 24-well plate (2.5×10^5 cells/well), and the next day after cells were adhered to the wall of the plate, the cells were washed with PBS. 1% FBS-DMEM culture medium was then added so as to synchronize cells. The next day compound II having different concentrations were added into the wells, and the cells were subsequently cultured in an atmosphere of 5% CO2 at 37° C. for 24 h. The cells were washed with PBS once, and 400 μl MTT agent was added in each well so as to react for 4 h. Then 400 μl 10% SDS was added in each well so as to react for 12 h. 200 μl supernatant was taken from the well and then added into a 96-well microplate, so as to measure the absorbance at 570 nm.
FIG. 13 separately illustrates the viabilities of cells treated with the compound II in different doses, and whether the viabilities of cells were recovered when the cells were treated with both the compound II and the antioxidant NAC, so as to illustrate the effect of increased reactive oxygen species caused by the compound II on the tumor cell proliferation. The test method for measuring the cell viability refers to steps described in test example 2-1. The breast tumor cells MDA-MD-231 were treated with the compound II of 0, 2, 5, 7.5, 10 and 15 μM for 24 h, and then the effect of the compound II on viability of breast tumor cells MDA-MD-231 was observed. FIG. 13 is a quantitative diagram, the data result was represented by mean±SD values, where n=3.
On the technique in general: Tetrazolium dyes change colour on reduction, which living cells bring about.

The subject of assay [2] is Her-2/neu, p-Tyrosine, PI3K and Akt in breast tumor cells MDA-MB-453. As to the kind of experiment: western blotting of Her-2/neu-related proteins. Type of assay: cell-based, human. How it is done: The steps of western blotting include: washing cells with PBS twice at 4° C.; adding a lysis buffer and rubbing the cells by a rubbr policeman so as to lyse cells; putting the lysed cell solution into a 1.5 ml microcentrifuge tube and shaking for 1 min; centrifuging at 12000 rpm for 10 min and taking the supernatant; measuring concentration of the protein through a Bio-Rad protein assay kit; and storing the remained extracted protein solution at −70° C.; taking 100 μg protein solution and adding a SDS/protein loading buffer having the same volume, where the SDS/protein loading buffer has a concentration two times larger than the protein solution; boiling the mixture of the protein solution and the SDS/protein loading buffer at 100° C. for 10 min; cooling and loading the protein samples in each hole of gel; adjusting the voltage to 100 V and running the protein samples on the gel until the tracking dye in the sample buffer reaches the bottom of the gel; and subsequently transferring the protein from the gel using electrophoresis. A PVDF membrane was soaked in methanol until the paper was totally wet. The paper was arranged in a transfer tank placed in a 4° C. ice box, and the protein transfer was performed at a current of […] for 4 h. The PVDF membrane was then taken out, placed in a PBS blocking solution including 1% BSA and shaken for 2 h. Then the PVDF membrane was placed in a blocking solution including a primary antibody and slowly shaken at 100 rpm for 1 h at the room temperature. […] Then luminescence image equipment was used, where the PVDF was placed onto a black metal plate by a plastic pincer and the face including protein was upwards, a 1:1 mixed Chemiluminesent Substrate was added into the membrane and the exposure time depends on the fluorescence intensity of antibodies. […] FIG. 22 illustrates expression results of Her-2/neu-related proteins used for facilitating survival of tumor cells when compounds of formula (I) in different doses were added, which were detected by the western blotting. […]
For orientation: A western blot detects proteins with antibodies after separation by electrophoresis.

pIC50: −log10 of the molar value. Where two headings read alike, the source gives them in different places.

For the compound `COC1=C(OC)C(=O)C(C)=C(C)C1=O` [compound II], the pIC50 is about 5.19 in assay [1] (MDA-MB-231, 0-40 μM for 24 h, FIG. 1A, read-out: IC50 for inhibiting the MDA-MB-231) and 5.12 in assay [1] (viability, MDA-MB-231 cell strain, Table 1, read-out: IC50). Moreover, the cell viability entry is listed as “significantly decreased” in assay [1] (MDA-MB-231, 2-15 μM, 24 h) and “not influenced” in assay [1] (MDA-MB-231, with antioxidant NAC). Moreover, in assay [2] (40 μM), the “expression of Her-2/neu and p-Tyrosine” value is given as “totally inhibited”. The “expression amount of p-Tyrosine activated by Her-2/neu” value in assay [2] (10-60 μM, with increasing concentration) is recorded as “significantly decreased”. Besides, the “protein expression of PI3K and Akt” value in assay [2] (high concentration) is “inhibited”.
